Legend:
[1] = Clinical pharmacological trial: pharmacokinetics after single-dose edoxaban 15 mg in individuals with renal functional impairment; details: for AUC(0-t) / concentration at 24 h / CL renal / Cmax / half-life / Tmax: human, in vivo, 15 mg; for AUC(0-t): AUC0-24h Geometric least squares mean; for AUC(0-t) / concentration at 24 h / CL renal / Cmax / half-life / Tmax / AUC0-24h Geometric least squares mean ratio to healthy adult / Cmax Geometric least squares mean ratio to healthy adult: single-dose 15 mg; for concentration at 24 h: C24h Geometric mean (plasma edoxaban concentration 24 hours after administration); for CL renal: CLR Geometric mean (renal clearance); for Cmax: Cmax Geometric least squares mean; for half-life: t1/2 Geometric least squares mean; for Tmax: tmax Least squares mean
Description: Edoxaban was subjected to a clinical trial targeting individuals with renal functional impairment, in which edoxaban was studied for its pharmacokinetics in the individuals with renal functional impairment (Non-patent literature 4). In this clinical trial, 15 mg of edoxaban was administered at a single dose to each patient in five groups differing in the severity of renal functional impairment.

NVAF patients = assay: Late phase-II trial targeting NVAF patient in Japan (thromboembolic and bleeding events, 12 weeks); format: in vivo, human; details: 12 weeks
[2] = healthy adult (CLCR > 80 mL/min)
[3] = mild renal impairment (50 ≦ CLCR ≦ 80 mL/min)
[4] = moderate renal impairment (30 ≦ CLCR < 50 mL/min)
[5] = severe renal impairment (CLCR < 30 mL/min, nondialyzed)
[6] = individuals with severe renal impairment
[7] = 30 mg×1/day, 30 ≦ CLCR < 50 mL/min
[8] = 30 mg×1/day, 50 ≦ CLCR ≦ 80 mL/min
[9] = 45 mg×1/day, 30 ≦ CLCR < 50 mL/min
[10] = 45 mg×1/day, 50 ≦ CLCR ≦ 80 mL/min
[11] = 60 mg×1/day, 30 ≦ CLCR < 50 mL/min
[12] = 60 mg×1/day, 50 ≦ CLCR ≦ 80 mL/min

Molecule `CN1CCc2nc(C(=O)N[C@@H]3C[C@@H](C(=O)N(C)C)CC[C@@H]3NC(=O)C(=O)Nc3ccc(Cl)cn3)sc2C1` [edoxaban, N^1-(5-chloropyridin-2-yl)-N^2-((1S,2R,4S)-4-[(dimethylamino)carbonyl]-2-{[(5-methyl-4,5,6,7-tetrahydrothiazolo[5,4-c]pyridin-2-yl)carbonyl]amino}cyclohexyl)ethanediamide] has an AUC(0-t) [1, 2] of 440 ng·h/mL, an AUC(0-t) [1, 3] of 569 ng·h/mL and an AUC(0-t) [1, 4] of 726 ng·h/mL. It also gave an AUC(0-t) ([1]; peritoneal dialysis patient) of 770 ng·h/mL, an AUC(0-t) [1, 5] of 661 ng·h/mL and a concentration at 24 h [1, 2] of 2.34 ng/mL. The concentration at 24 h [1, 3] was 3.44 ng/mL, the concentration at 24 h [1, 4] was 5.9 ng/mL and the concentration at 24 h ([1]; peritoneal dialysis patient) was 8.24 ng/mL. The concentration at 24 h [1, 5] was 6.88 ng/mL, the CL renal [1, 2] was 197 mL/min and the CL renal [1, 3] was 121 mL/min. For the same molecule, the CL renal [1, 4] was 67.4 mL/min, the CL renal [1, 5] was 32.5 mL/min and the Cmax [1, 2] was 88.8 ng/mL. The Cmax [1, 3] was 104 ng/mL, the Cmax [1, 4] was 113 ng/mL and the Cmax ([1]; peritoneal dialysis patient) was 83.8 ng/mL. It also gave a Cmax [1, 5] of 83.6 ng/mL, a half-life [1, 2] of 8.6 h and a half-life [1, 3] of 8.15 h. It also gave a half-life [1, 4] of 9.44 h, a half-life ([1]; peritoneal dialysis patient) of 12.2 h and a half-life [1, 5] of 16.9 h. It also gave a Tmax [1, 2] of 1.5 h, a Tmax [1, 3] of 1.88 h and a Tmax [1, 4] of 1.38 h. For the same molecule, the Tmax ([1]; peritoneal dialysis patient) was 2.37 h, the Tmax [1, 5] was 1.7 h and the “Increase of C24 h compared with healthy adults” value ([1]; individuals with moderate renal impairment) was 2.52 times. The “Degree of the rise in C24 h relative to healthy adults” value [1, 6] was “approximately 3 times”, the “Degree of the rise in C24 h relative to individuals with mild renal impairment” value [1, 6] was “approximately 2 times” and the “AUC0-24h Geometric least squares mean ratio to healthy adult” value [1, 3] was 1.29. The “Cmax Geometric least squares mean ratio to healthy adult” value (“Cmax Geometric least squares mean ratio” below) [1, 3] was 1.17, the “AUC0-24h Geometric least squares mean ratio to healthy adult” value [1, 4] was 1.65 and the “Cmax Geometric least squares mean ratio” value [1, 4] was 1.27. For the same molecule, the “AUC0-24h Geometric least squares mean ratio to healthy adult” value ([1]; peritoneal dialysis patient) was 1.75, the “Cmax Geometric least squares mean ratio” value ([1]; peritoneal dialysis patient) was 0.944 and the “AUC0-24h Geometric least squares mean ratio to healthy adult” value [1, 5] was 1.50. For the same molecule, the “Cmax Geometric least squares mean ratio” value [1, 5] was 0.941, the “Bleeding event (major, clinically relevant non-major and minor in total), subjects with event/subjects” value (NVAF patients; [7]) was “(3/15)” and the “Incidence of bleeding event (major, clinically relevant non-major and minor bleeding in total)” value (NVAF patients; [7]) was 20.0%. For the same molecule, the “Incidence of major bleeding or clinically relevant non-major bleeding” value (NVAF patients; [7]) was 6.7%, the “Major bleeding or clinically relevant non-major bleeding, subjects with event/subjects” value (NVAF patients; [7]) was “(1/15)” and the “Bleeding event (major, clinically relevant non-major and minor in total), subjects with event/subjects” value (NVAF patients; [8]) was “(14/69)”. For the same molecule, the “Incidence of bleeding event (major, clinically relevant non-major and minor bleeding in total)” value (NVAF patients; [8]) was 20.3%, the “Incidence of major bleeding or clinically relevant non-major bleeding” value (NVAF patients; [8]) was 1.4% and the “Major bleeding or clinically relevant non-major bleeding, subjects with event/subjects” value (NVAF patients; [8]) was “(1/69)”. The “Bleeding event (major, clinically relevant non-major and minor in total), subjects with event/subjects” value (NVAF patients; 30 mg×1/day, 80 < CLCR mL/min) was “(7/46)”, the “Incidence of bleeding event (major, clinically relevant non-major and minor bleeding in total)” value (NVAF patients; 30 mg×1/day, 80 < CLCR mL/min) was 15.2% and the “Incidence of major bleeding or clinically relevant non-major bleeding” value (NVAF patients; 30 mg×1/day, 80 < CLCR mL/min) was 0%. For the same molecule, the “Major bleeding or clinically relevant non-major bleeding, subjects with event/subjects” value (NVAF patients; 30 mg×1/day, 80 < CLCR mL/min) was “(0/46)”, the “Bleeding event (major, clinically relevant non-major and minor in total), subjects with event/subjects” value (NVAF patients; [9]) was “(6/21)” and the “Incidence of bleeding event (major, clinically relevant non-major and minor bleeding in total)” value (NVAF patients; [9]) was 28.6%. The “Incidence of major bleeding or clinically relevant non-major bleeding” value (NVAF patients; [9]) was 9.5%, the “Major bleeding or clinically relevant non-major bleeding, subjects with event/subjects” value (NVAF patients; [9]) was “(2/21)” and the “Bleeding event (major, clinically relevant non-major and minor in total), subjects with event/subjects” value (NVAF patients; [10]) was “(19/72)”. The “Incidence of bleeding event (major, clinically relevant non-major and minor bleeding in total)” value (NVAF patients; [10]) was 26.4%, the “Incidence of major bleeding or clinically relevant non-major bleeding” value (NVAF patients; [10]) was 4.2% and the “Major bleeding or clinically relevant non-major bleeding, subjects with event/subjects” value (NVAF patients; [10]) was “(3/72)”. For the same molecule, the “Bleeding event (major, clinically relevant non-major and minor in total), subjects with event/subjects” value (NVAF patients; 45 mg×1/day, 80 < CLCR mL/min) was “(5/41)”, the “Incidence of bleeding event (major, clinically relevant non-major and minor bleeding in total)” value (NVAF patients; 45 mg×1/day, 80 < CLCR mL/min) was 12.2% and the “Incidence of major bleeding or clinically relevant non-major bleeding” value (NVAF patients; 45 mg×1/day, 80 < CLCR mL/min) was 4.9%. The “Major bleeding or clinically relevant non-major bleeding, subjects with event/subjects” value (NVAF patients; 45 mg×1/day, 80 < CLCR mL/min) was “(2/41)”, the “Bleeding event (major, clinically relevant non-major and minor in total), subjects with event/subjects” value (NVAF patients; [11]) was “(4/15)” and the “Incidence of bleeding event (major, clinically relevant non-major and minor bleeding in total)” value (NVAF patients; [11]) was 26.7%. The “Incidence of major bleeding or clinically relevant non-major bleeding” value (NVAF patients; [11]) was 0%, the “Major bleeding or clinically relevant non-major bleeding, subjects with event/subjects” value (NVAF patients; [11]) was “(0/15)” and the “Bleeding event (major, clinically relevant non-major and minor in total), subjects with event/subjects” value (NVAF patients; [12]) was “(21/68)”. For the same molecule, the “Incidence of bleeding event (major, clinically relevant non-major and minor bleeding in total)” value (NVAF patients; [12]) was 30.9%, the “Incidence of major bleeding or clinically relevant non-major bleeding” value (NVAF patients; [12]) was 10.3% and the “Major bleeding or clinically relevant non-major bleeding, subjects with event/subjects” value (NVAF patients; [12]) was “(7/68)”. For the same molecule, the “Bleeding event (major, clinically relevant non-major and minor in total), subjects with event/subjects” value (NVAF patients; 60 mg×1/day, 80 < CLCR mL/min) was “(10/46)”, the “Incidence of bleeding event (major, clinically relevant non-major and minor bleeding in total)” value (NVAF patients; 60 mg×1/day, 80 < CLCR mL/min) was 21.7% and the “Incidence of major bleeding or clinically relevant non-major bleeding” value (NVAF patients; 60 mg×1/day, 80 < CLCR mL/min) was 0%. For the same molecule, the “Major bleeding or clinically relevant non-major bleeding, subjects with event/subjects” value (NVAF patients; 60 mg×1/day, 80 < CLCR mL/min) was “(0/46)” and the “Bleeding event (major, clinically relevant non-major and minor in total), subjects with event/subjects” value (NVAF patients; 60 mg×1/day, CLCR < 30 mL/min) was “(1/1)”.

From patent US20140371262A1, “PREVENTIVE AND/OR THERAPEUTIC AGENT FOR THROMBOEMBOLISM IN THROMBOEMBOLISM PATIENT WITH SEVERE RENAL IMPAIRMENT” (Daiichi Sankyo Company, Limited, priority 2011, published 2014)
